Reference: publication PMC12692861, “Biotin-Linked Ursolic Acid Conjugates as Selective Anticancer Agents and Target-Identification Tools for Cancer Therapy” (Molecules, 2025)
Where two headings read alike, the source gives them in different places.

How the values were obtained:
[1] = test system: 5637 cells; assay: MTT antiproliferative assay; format: cell-based, human; conditions: for IC50: Homo sapiens, 72 h, MTT, read-out: IC50 (Mean ± SD), 5637; for SI (selectivity index), 5637: IC50 MCF-12A / IC50 5637
Procedure: (§1) The synthesized hybrid conjugates 5a–d were evaluated for their antiproliferative activity against the established human bladder cancer cell lines T24 and 5637. Test compounds were dissolved in ultrapure dimethyl sulfoxide (DMSO), diluted in cell culture media, added to cells cultured in 96-well cluster wells, and incubated for 72 h. The concentration of DMSO in culture media was maintained at < 0.05%. As previously reported, the fraction of viable cells in the culture wells was compared to that in cultures with 0.05% DMSO-only using a colorimetric assay, the Methyl Tetrazolium Bromide (MTT) reduction assay. We determined the selectivity index (SI) of the compounds 5a–d against tumor cells by comparing their cytotoxicity to that of a non-tumorigenic breast epithelial cell line, MCF-12A, as well as a non-tumorigenic, immortalized urothelial cell line, UROtsa (Table 1, and Figure 2).
(§2) The antiproliferative activities of various compounds examined in this report were measured using the MTT (3-[4,5-dimethylthiazol-2-yl]-2,5-diphenyl-tetrazolium bromide) reduction assay, as previously described. Briefly, cells were seeded at 2 × 10^3 cells per well in a 96-well plate and cultured overnight. The cells were then treated with different doses (5 µM, 10 µM, 15 µM, 20 µM, 25 µM, 30 µM, 35 µM, 40 µM in DMSO) for 72 h. Viability of the treated cultures was estimated by conversion of MTT to the insoluble formazan after 3h incubation at 37 °C and 5% CO2. The purple-colored formazan crystals were dissolved in DMSO, and absorbance was recorded at wavelengths 570/640 nm using the Bio-Rad Benchmark Plus Microplate Reader. The percent of viable cells was calculated ODtreated cells/ODcontrol cell wells × 100.

[2] = test system: T24 cells; assay: MTT antiproliferative assay; format: cell-based, human; conditions: for IC50: Homo sapiens, T-24, MTT, 72 h, read-out: IC50 (Mean ± SD), T24; for SI (selectivity index), T24: IC50 MCF-12A / IC50 T24
Procedure: as §1, §2

[3] = test system: MB49 cells; assay: Annexin V-FITC/PI apoptosis flow cytometry; format: cell-based, murine; conditions: Mus musculus, MB49, 24 h
Procedure: The potential of cells treated with UA or 5c to undergo dose-dependent apoptosis was explored using quantitative flow cytometric analysis, as shown in Figure 4. Utilizing a kit that detects quantitative binding of Annexin V to externalized phosphatidyl serine during the apoptosis cascade and permeability of Propidium iodide (PI) in cells undergoing cell death, we determined the cells at various stages of cell death following 24h incubation with UA and 5c in various bladder cancer cells.
We used a fluorescence-based Annexin V binding assay to determine the fraction of the cell population undergoing early and late apoptosis due to the cytotoxicity of the drugs. Cells plated in a 60 mm dish overnight at 0.3 × 10^6 cells/well were incubated with the selected drug at several doses for 24 h. Subsequently, treated cells were labeled with FITC-Annexin V using a kit (eBioscience™ Annexin V Apoptosis Detection Kits; Invitrogen # 88-8005-72, Thermo Fisher Scientific, Seoul, Korea) as per the manufacturer’s instructions. Intact cell suspension labeled with FITC-Annexin V and PI was run on the NovoCyte Quanteon flow cytometer, and data were acquired in list mode. Acquired data were analyzed using NovoExpress software (version 1.6.1). Cells treated with Staurosporine (0.2 µM) act as a positive control.

[4] = test system: MB49; assay: Cell cycle phase fractionation by flow cytometry (PI); format: cell-based, murine; conditions: MB49, 24 h, mean ± SD n=3
Description: (§3) Cells treated with some antiproliferative drugs are blocked from orderly progression from one stage of their mitotic cycle to the next due to inhibition of a specific stage of the cell cycle. Analysis by flow cytometry (FC) of DNA content in the nuclei of drug-treated cells is a well-established technique for evaluating the fractions of cells in each stage of the cell cycle based on their DNA content. In this study, we employed FC to examine whether treatment with UA or 5c affects the orderly cell cycle progression from G0/G1, S, and G2M before entering Mitosis (M). Figure 6 represents the effect of UA and 5c on cell cycle progression in four bladder cancer cell lines, 5637, HT-1376, T-24, and MB-49, after a […] treatment at a concentration of 12 µM. Following the treatment, nuclei suspensions from treated cells were prepared by direct cell lysis in a hypotonic solution, with simultaneous staining with PI (100 µg/mL). The resulting nuclei suspension and the samples were run on the flow cytometer and analyzed for DNA content.
(§4) Cells cultured in 35 mm diameter, 6-well cluster plates (Corning Inc., Corning, NY, USA) overnight at a density of 0.3 × 10^6 cells/well, and treated with various compounds at selected concentrations for 24 h. After completion of treatment, cells were washed twice with PBS, followed by the addition of Propidium Iodide (PI) containing […] solution [(0.1 mg/mL PI), 50mg Na-citrate, 15 µL of IGEPAL CA-630], 1 mL in each well, and incubated for 30–45 min at 37 °C and 5% CO2. After that data acquired using the NovoCyte Quanteon Flow Cytometer was analyzed using NovoExpress software (version 1.6.1).

[5] = test system: bladder cancer cell lines 5637, HT-1376, T-24, MB-49; assay: Cell cycle analysis, statements across the tested cell lines; format: cell-based; conditions: for effect on cell cycle distribution: 12 µM, bladder cancer cell lines
Description: as §3, §4

| SMILES | IC50 [1] | SI (selectivity index), 5637 [1] | IC50 [2] | SI (selectivity index), T24 [2] | viability at 10 µM ([3]; read-out: Q4-3 (Q3, viable) cells, MB49, 10 µM, 24 h) | viability at 15 µM ([3]; read-out: Q4-3 (Q3, viable) cells, MB49, 15 µM, 24 h) | Cell-Cycle Phase-Fractions G1 [4] | Cell-Cycle Phase-Fractions G2/M [4] | Cell-Cycle Phase-Fractions S [4] | effect on cell cycle distribution [5] | IC50 in µM (selectivity index in parentheses), T-24 ([2]; IC50 UROtsa / IC50 T-24) | viability at 10 µM ([3]; MB49, 10 µM, 24 h, read-out: Q4-3 (Q3, viable) cells) | viability at 15 µM ([3]; MB49, 15 µM, 24 h, read-out: Q4-3 (Q3, viable) cells) | increase in the G1-phase population compared with untreated control ([5]; across the tested cell lines) |
| --- | --- | --- | --- | --- | --- | --- | --- | --- | --- | --- | --- | --- | --- | --- |
| C[C@H]1[C@H](C)CC[C@]2(C(=O)O)CC[C@]3(C)C(=CC[C@@H]4[C@@]5(C)CC[C@H](O)C(C)(C)[C@@H]5CC[C@]43C)[C@H]12 [UA, Ursolic acid] | 13.4 ± 0.35 µM | 4.19 | 17.5 ± 0.98 µM | 3.21 | 74.4% | 64.5% | 59.75 ± 0.77 % of total | 19.12 ± 1.09 % of total | 21.13 ± 1.49 % of total | more modest shift in phase distribution |  |  |  |  |
| CC1CCC2(C(=O)OCCCCOC(=O)CCCCC3SCC4NC(=O)NC43)CCC3(C)C(=CCC4C5(C)CCC(O)C(C)(C)C5CCC43C)C2C1C [Compound 5c, 4-((5-((3aS,4S,6aR)-2-Oxohexahydro-1H-thieno [3,4-d]imidazol-4-yl)pentanoyl)oxy) butyl 3-hydroxy-urs-12-en-28-oate] | 11 ± 0.19 µM | 7.58 | 14.2 ± 1.01 µM | 5.85 |  |  | 53.52 ± 1.25 % of total | 18.43 ± 0.69 % of total | 28.05 ± 0.56 % of total | G1 phase arrest | 14.20 ± 1.01 (4.43) | 39.4% | 35.6% | 20–30% |
